Results as given in paper PMC2694132 (Cancer research, 2009).

Columns and labels:
Assay type in all cases: in vitro ADME
[1] = molecular target: T1, UGT2B10 (Homo sapiens, UniProt P36537); experiment: SAHA glucuronidation screen, UGT2B10-overexpressing cell homogenate; settings: 400 μg UGT-overexpressing cell homogenate, 1-h incubation
T1 sequence (P36537 24-528): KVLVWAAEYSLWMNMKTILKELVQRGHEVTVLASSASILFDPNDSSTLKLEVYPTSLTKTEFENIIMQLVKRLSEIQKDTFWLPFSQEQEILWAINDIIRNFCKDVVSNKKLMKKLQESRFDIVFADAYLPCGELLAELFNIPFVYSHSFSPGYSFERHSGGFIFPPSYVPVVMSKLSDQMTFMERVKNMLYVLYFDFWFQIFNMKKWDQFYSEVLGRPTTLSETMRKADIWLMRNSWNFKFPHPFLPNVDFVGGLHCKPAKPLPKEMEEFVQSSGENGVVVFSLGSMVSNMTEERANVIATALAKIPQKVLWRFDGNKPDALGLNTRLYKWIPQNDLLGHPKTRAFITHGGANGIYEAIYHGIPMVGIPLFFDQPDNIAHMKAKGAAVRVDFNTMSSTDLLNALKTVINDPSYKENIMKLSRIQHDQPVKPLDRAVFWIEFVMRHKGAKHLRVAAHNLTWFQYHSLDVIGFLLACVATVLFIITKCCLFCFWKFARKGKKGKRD

[2] = molecular target: T2, UGT2B7 (Homo sapiens, UniProt P16662); experiment: SAHA glucuronidation screen, UGT2B7-overexpressing cell homogenate
T2 sequence (P16662 24-529): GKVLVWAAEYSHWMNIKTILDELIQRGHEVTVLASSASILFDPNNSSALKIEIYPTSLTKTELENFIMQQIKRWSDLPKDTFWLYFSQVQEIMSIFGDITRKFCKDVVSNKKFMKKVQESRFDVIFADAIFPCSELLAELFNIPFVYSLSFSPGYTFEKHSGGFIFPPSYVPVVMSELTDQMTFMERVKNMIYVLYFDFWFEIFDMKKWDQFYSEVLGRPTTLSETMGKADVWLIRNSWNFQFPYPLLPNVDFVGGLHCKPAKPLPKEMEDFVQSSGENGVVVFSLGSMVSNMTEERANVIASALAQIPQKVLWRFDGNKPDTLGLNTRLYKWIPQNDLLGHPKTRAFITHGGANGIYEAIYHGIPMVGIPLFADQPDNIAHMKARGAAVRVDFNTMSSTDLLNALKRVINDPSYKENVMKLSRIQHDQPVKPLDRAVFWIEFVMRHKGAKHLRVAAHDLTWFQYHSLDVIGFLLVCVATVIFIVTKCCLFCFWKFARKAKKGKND

[3] = molecular target: T3, UGT1A9 (Homo sapiens, UniProt O60656); experiment: SAHA glucuronidation, UGT1A9-overexpressing HEK293 cell homogenate
T3 sequence (O60656 26-530): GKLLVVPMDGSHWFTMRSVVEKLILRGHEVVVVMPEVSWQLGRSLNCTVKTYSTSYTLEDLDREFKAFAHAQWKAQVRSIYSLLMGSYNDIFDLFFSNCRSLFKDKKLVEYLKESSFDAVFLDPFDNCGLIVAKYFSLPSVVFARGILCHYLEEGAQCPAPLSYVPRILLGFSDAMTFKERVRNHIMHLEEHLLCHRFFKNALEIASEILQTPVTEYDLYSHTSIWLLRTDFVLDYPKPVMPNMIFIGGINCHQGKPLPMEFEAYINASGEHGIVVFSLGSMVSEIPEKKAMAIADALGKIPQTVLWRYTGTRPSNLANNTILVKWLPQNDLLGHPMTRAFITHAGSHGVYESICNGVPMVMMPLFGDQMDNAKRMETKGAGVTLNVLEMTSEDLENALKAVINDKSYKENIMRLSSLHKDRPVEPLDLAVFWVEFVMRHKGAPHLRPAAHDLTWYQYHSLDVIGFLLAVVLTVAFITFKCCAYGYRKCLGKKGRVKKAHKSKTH

[4] = molecular target: T4, UGT1A4 (Homo sapiens, UniProt P22310); experiment: SAHA glucuronidation screen, UGT1A4-overexpressing cell homogenate
T4 sequence (P22310 29-534): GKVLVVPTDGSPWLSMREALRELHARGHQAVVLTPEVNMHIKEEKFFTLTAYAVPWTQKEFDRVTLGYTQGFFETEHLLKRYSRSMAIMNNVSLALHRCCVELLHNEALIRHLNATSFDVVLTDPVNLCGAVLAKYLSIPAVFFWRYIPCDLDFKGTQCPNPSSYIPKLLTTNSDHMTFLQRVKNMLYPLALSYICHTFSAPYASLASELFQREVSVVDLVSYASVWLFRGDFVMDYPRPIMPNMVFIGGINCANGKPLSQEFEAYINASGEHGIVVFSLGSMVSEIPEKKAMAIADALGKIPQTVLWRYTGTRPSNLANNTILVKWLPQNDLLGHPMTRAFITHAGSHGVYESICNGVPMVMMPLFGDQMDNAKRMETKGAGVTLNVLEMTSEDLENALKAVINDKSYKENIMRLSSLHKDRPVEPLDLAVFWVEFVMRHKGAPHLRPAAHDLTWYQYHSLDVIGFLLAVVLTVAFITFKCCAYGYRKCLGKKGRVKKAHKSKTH

[5] = 400 μg UGT-overexpressing cell homogenate, 1-h incubation

## O=C(CCCCCCC(=O)Nc1ccccc1)NO [SAHA, Suberoylanilide hydroxamic acid]
[1]
  glucuronidation activity against SAHA (screen): No detectable glucuronidation activity
[2]; [5]
  glucuronidation against SAHA: detectable levels of glucuronidation
[2]; human, UGT2B7-overexpressing cell homogenate, pH 7.5
  Km at 1 h: > 8 mM
[3]; [5]
  glucuronidation against SAHA (screen): high levels of glucuronidation
[3]; human, UGT1A9-overexpressing HEK293 cell homogenate, pH 7.5
  Km at 1 h: 1.6 ± 0.5 mM
[4]; [5]
  glucuronidation against SAHA: detectable levels of glucuronidation
[4]; human, UGT1A4-overexpressing cell homogenate, pH 7.5
  Km at 1 h: > 8 mM
